Active and inactive are the calls of the source.
Assays:
[1] = biological target: Voltage-dependent T-type calcium channel subunit alpha-1H (Homo sapiens, UniProt O95180); assay type: functional;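 also: channel activity triggered by adding a high calcium stimulation buffer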
Cytochrome P450 1A2 = biological target: T1, Cytochrome P450 1A2 (Homo sapiens, UniProt P05177);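 also: PubChem cytochrome P450 panel assay, CYP1A2 panel member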
T1 sequence (P05177 whole entry): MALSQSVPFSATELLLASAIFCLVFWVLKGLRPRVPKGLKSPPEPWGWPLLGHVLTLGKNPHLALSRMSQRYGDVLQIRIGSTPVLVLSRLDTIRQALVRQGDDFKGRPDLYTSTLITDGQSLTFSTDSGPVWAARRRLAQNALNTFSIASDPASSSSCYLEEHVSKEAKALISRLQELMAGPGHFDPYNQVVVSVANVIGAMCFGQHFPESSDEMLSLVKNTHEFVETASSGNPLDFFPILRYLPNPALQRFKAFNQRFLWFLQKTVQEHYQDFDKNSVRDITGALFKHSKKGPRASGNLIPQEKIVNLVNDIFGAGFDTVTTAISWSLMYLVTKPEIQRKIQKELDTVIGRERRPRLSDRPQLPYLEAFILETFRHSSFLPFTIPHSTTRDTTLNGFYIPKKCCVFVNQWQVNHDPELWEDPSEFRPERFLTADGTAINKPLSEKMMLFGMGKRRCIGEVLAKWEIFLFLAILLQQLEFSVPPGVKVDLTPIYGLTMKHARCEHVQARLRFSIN

Cytochrome P450 3A4 = Cytochrome P450 3A4 (Homo sapiens, UniProt P08684);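 also: CYP3A4 tested as one member of a cytochrome P450 panel screen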
[2] = biological target: T2, Calpain-2 catalytic subunit (Sus scrofa, UniProt P43367); assay: pig calpain II inhibitor potency, dose response, biochemical, fluorogenic peptide substrate (AID 1420); assay type: functional
T2 sequence (P43367 whole entry): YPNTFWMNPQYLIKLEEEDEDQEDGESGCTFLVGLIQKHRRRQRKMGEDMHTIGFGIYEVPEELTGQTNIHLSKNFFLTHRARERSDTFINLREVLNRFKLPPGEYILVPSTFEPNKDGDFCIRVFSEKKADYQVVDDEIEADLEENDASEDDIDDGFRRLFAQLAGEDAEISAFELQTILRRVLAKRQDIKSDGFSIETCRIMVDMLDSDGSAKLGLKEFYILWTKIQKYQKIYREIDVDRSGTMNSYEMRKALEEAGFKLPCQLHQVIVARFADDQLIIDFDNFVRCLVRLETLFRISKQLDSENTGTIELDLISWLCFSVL

Prothrombin = Prothrombin (Homo sapiens, UniProt P00734); assay: Thrombin 1536 HTS Dose Response Confirmation. [Related pubchem assays: 1046 (Thrombin 1536 HTS; hits were confirmed in this assay)]; assay type: functional
[3] = biological target: T3, Rac GTPase-activating protein 1 (Homo sapiens, UniProt Q9H0H5); assay: MgcRacGAP GTPase-activating activity inhibitors, confirmation, biochemical, ADP Hunter fluorescence, primary and confirmatory (AID 624330); assay type: functional
T3 sequence (Q9H0H5 whole entry): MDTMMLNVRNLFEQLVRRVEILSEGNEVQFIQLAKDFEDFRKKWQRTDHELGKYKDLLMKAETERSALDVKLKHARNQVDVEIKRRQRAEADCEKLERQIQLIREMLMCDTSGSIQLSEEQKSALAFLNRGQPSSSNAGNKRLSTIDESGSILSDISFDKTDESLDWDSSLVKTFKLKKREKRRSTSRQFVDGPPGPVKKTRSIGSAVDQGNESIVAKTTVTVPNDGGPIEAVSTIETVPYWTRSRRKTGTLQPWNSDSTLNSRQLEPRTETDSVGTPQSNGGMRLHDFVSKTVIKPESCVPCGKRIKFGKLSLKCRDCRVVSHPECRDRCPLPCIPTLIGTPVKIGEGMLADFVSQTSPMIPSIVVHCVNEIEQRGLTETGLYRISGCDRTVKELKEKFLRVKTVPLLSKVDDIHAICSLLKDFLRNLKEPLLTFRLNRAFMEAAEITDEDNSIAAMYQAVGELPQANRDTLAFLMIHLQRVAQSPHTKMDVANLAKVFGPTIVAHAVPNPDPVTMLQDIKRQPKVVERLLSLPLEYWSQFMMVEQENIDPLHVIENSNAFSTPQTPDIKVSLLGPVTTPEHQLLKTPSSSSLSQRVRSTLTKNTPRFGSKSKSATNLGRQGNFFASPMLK

[4] = biological target: Induced myeloid leukemia cell differentiation protein Mcl-1 (Homo sapiens, UniProt Q07820); assay type: functional
Cytochrome P450 2C19 = Cytochrome P450 2C19 (Homo sapiens, UniProt P33261); assay: Cytochrome panel assay with activity outcomes. Panel member name: p450-cyp2c19 Compounds with AC50 equal or less than 10 uM are considered active; assay type: functional; conditions: read-out: AC50
Cytochrome P450 2D6 = Cytochrome P450 2D6 (Homo sapiens, UniProt P10635);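 also: CYP2D6 member of a cytochrome P450 panel assay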
Cytochrome P450 2C9 = Cytochrome P450 2C9 (Homo sapiens, UniProt P11712)
[5] = growth suppression of PTEN-null colon cells, dose response, cell-based, HCT116 PTEN knockout (AID 1047); assay type: functional;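 also: HCT116 colon tumor cells with PTEN knocked out; cells exposed to compound for 60 hours before readout; potency for loss of cell viability measured by luminescence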
[6] = growth suppression of beta-catenin-knockout colon cells, dose response, cell-based, HCT116, human colon tumor (AID 1045); assay type: functional;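 also: HCT116 colon tumor cells with beta catenin knocked out; cells exposed to compound for 60 hours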
[7] = biological target: T4, Heat shock factor protein 1 (Mus musculus, UniProt P38532); assay: inhibition of MG132-induced HSE-luciferase signal, confirmation, cell-based, NIH3T3, luminescence, dose retest (AID 2382); assay type: functional;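 also: NIH3T3 fibroblasts with HSF1-driven luciferase reporter stressed by proteasome inhibitor MG132; luminescence from HSF1-driven luciferase expression after 8 hours of MG132 stress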
T4 sequence (P38532 whole entry): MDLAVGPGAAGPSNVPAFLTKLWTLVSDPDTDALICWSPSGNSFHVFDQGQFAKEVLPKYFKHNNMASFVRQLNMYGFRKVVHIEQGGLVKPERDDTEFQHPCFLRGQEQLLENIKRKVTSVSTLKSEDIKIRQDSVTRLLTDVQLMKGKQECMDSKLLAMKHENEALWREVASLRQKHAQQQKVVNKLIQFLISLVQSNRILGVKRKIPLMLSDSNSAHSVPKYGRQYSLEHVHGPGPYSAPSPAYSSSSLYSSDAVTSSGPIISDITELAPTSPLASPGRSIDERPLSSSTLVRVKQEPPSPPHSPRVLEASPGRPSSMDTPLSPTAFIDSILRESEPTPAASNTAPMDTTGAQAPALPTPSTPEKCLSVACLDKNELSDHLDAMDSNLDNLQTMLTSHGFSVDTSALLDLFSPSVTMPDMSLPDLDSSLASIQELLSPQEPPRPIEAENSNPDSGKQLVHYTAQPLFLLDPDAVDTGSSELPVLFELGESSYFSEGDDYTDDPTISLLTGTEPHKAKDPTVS

Fatty acid synthase [8] = biological target: T5, Fatty acid synthase (Homo sapiens, UniProt P49327); assay: FAS thioesterase domain inhibitors, dose response, biochemical, endpoint fluorescence intensity, uHTS hits (AID 624327); assay type: functional;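 also: fluorescence from hydrolysis of an O-methyl fluorescein acyl ester substrate by the enzyme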
Fatty acid synthase [9] = biological target: T5, Fatty acid synthase; assay: FAS thioesterase domain inhibitors, dose response, biochemical, kinetic fluorescence intensity (AID 624326); assay type: functional;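 also: rate of fluorescence rise from hydrolysis of a fluorogenic O-methyl fluorescein ester substrate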
[10] = biological target: T6, Short transient receptor potential channel 4 (Mus musculus, UniProt Q9QUQ5); assay: mouse TRPC4 channel inhibitors, dose response, cell-based, HEK293 TRPC4/mu-opioid, Fluo-4 calcium (AID 434942); assay type: functional;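 also: potency of inhibitors blocking the TRPC4 calcium response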
T6 sequence (Q9QUQ5 whole entry): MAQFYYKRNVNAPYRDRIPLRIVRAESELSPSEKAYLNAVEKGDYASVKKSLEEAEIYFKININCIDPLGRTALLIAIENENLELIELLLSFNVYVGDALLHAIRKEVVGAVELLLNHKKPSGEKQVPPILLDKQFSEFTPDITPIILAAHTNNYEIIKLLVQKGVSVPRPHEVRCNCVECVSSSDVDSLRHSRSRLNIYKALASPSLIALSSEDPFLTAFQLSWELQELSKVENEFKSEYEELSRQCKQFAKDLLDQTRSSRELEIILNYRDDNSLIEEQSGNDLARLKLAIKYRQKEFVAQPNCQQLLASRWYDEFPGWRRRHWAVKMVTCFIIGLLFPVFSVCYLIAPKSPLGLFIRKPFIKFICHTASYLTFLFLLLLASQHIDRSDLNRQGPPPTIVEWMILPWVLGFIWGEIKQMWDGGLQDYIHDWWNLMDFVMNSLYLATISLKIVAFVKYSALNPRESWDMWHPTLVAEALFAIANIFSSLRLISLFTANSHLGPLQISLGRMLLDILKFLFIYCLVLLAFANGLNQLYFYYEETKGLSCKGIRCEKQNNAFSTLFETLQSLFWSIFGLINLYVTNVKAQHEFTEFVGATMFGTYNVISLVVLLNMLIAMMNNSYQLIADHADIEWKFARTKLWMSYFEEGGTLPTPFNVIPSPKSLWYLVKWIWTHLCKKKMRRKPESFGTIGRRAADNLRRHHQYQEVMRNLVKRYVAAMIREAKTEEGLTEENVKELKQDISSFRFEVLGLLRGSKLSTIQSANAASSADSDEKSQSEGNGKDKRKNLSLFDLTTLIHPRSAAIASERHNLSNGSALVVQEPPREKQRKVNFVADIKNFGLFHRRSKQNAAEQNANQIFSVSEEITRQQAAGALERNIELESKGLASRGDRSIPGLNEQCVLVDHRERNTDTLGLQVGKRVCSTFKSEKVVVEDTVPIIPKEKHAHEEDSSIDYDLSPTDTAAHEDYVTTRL

cells [11] = assay type: functional, cell-based
cells [12] = assay type: functional, cell-based; remark: listed apart in the source
Estrogen receptor beta = Estrogen receptor beta (Homo sapiens, UniProt Q92731);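 also: recombinant ER-beta bound to coactivator SRC1 peptide in presence of estradiol agonist; inhibitors block coactivator peptide binding and lower the FRET signal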
cells [13] = assay type: functional, cell-based; remark: listed apart in the source
[14] = biological target: T7, Trace amine-associated receptor 1 (Homo sapiens, UniProt Q96RJ0); assay: Fluorescence-based cell-based high throughput dose response assay to identify agonists of the human trace amine associated receptor 1 (TAAR1).; assay type: functional
T7 sequence (Q96RJ0 whole entry): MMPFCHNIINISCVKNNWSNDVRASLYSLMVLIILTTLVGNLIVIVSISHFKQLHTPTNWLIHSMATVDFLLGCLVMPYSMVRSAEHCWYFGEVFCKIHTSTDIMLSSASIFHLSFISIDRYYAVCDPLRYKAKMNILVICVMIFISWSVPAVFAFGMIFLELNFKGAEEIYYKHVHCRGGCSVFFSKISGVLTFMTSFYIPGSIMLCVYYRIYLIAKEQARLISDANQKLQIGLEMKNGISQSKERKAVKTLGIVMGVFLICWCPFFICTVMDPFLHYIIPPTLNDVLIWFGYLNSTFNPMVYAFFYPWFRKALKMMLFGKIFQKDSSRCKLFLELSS

[15] = biological target: T7, Trace amine-associated receptor 1; assay: Counterscreen for agonists of the human trace amine associated receptor 1 (hTAAR1): Fluorescence-based cell-based high throughput dose response assay to identify hTAAR1 agonist that also desensitize TAAR1 receptor response.; assay type: functional
cells [16] = assay type: functional, cell-based; remark: listed apart in the source

Sequence of Voltage-dependent T-type calcium channel subunit alpha-1H (O95180 whole entry): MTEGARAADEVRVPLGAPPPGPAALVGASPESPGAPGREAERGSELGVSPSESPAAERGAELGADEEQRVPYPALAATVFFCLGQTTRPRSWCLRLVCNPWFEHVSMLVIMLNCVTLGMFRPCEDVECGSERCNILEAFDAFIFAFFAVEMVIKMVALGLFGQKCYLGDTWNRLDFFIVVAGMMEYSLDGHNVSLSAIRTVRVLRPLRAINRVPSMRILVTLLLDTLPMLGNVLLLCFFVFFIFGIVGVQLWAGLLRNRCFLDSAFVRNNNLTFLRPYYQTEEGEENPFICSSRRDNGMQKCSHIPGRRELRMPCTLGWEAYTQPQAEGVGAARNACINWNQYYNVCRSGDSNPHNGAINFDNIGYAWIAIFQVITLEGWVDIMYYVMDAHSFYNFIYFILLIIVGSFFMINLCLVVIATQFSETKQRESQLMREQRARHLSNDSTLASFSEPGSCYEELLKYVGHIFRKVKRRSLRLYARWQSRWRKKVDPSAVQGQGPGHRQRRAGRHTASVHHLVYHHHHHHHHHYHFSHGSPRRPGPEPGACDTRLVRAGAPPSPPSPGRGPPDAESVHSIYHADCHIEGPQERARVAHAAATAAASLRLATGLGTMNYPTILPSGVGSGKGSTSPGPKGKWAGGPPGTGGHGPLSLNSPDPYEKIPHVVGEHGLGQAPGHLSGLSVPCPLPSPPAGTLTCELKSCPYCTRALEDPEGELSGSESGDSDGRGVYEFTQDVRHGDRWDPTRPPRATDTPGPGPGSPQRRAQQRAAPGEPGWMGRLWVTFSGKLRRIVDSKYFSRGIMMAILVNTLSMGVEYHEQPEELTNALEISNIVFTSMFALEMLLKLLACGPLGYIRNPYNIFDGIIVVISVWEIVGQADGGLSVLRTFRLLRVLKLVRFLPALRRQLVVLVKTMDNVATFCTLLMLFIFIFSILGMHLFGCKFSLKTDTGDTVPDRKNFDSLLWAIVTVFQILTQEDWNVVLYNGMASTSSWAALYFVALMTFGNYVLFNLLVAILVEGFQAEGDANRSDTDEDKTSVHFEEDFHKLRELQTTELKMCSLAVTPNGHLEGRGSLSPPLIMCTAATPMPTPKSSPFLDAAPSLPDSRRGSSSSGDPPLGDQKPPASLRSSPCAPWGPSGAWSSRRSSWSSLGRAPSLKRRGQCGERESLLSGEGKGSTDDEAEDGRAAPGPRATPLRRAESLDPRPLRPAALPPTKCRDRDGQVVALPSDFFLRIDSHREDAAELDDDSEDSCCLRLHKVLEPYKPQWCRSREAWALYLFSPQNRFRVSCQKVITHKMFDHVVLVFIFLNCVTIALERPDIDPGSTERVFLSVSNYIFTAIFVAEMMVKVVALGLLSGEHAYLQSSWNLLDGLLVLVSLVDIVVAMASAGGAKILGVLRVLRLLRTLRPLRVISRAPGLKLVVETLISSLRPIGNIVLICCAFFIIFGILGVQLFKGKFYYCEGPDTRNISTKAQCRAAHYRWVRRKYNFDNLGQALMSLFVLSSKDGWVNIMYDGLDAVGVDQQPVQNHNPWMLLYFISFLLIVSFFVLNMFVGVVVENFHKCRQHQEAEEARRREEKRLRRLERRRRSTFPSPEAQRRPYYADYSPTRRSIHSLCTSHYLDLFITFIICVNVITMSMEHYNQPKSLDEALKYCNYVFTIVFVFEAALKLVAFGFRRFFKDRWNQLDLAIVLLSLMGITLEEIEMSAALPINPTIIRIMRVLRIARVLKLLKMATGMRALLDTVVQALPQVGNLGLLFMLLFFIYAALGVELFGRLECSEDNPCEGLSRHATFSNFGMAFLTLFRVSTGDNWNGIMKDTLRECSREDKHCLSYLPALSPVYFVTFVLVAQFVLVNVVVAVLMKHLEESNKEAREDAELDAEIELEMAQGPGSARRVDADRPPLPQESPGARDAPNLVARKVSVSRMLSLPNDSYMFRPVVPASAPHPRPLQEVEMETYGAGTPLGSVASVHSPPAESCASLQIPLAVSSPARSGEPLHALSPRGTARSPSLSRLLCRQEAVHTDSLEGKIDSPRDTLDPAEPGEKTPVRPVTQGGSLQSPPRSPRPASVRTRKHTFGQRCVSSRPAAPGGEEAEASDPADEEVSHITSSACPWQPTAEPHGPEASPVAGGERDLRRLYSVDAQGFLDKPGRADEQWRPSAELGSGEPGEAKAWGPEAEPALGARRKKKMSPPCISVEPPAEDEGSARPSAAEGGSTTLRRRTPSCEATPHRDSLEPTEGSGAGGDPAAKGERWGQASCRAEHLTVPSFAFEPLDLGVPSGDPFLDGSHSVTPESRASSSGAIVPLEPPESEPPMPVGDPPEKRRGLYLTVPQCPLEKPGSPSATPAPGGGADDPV
T5 sequence (P49327 whole entry, the tested form may be a part): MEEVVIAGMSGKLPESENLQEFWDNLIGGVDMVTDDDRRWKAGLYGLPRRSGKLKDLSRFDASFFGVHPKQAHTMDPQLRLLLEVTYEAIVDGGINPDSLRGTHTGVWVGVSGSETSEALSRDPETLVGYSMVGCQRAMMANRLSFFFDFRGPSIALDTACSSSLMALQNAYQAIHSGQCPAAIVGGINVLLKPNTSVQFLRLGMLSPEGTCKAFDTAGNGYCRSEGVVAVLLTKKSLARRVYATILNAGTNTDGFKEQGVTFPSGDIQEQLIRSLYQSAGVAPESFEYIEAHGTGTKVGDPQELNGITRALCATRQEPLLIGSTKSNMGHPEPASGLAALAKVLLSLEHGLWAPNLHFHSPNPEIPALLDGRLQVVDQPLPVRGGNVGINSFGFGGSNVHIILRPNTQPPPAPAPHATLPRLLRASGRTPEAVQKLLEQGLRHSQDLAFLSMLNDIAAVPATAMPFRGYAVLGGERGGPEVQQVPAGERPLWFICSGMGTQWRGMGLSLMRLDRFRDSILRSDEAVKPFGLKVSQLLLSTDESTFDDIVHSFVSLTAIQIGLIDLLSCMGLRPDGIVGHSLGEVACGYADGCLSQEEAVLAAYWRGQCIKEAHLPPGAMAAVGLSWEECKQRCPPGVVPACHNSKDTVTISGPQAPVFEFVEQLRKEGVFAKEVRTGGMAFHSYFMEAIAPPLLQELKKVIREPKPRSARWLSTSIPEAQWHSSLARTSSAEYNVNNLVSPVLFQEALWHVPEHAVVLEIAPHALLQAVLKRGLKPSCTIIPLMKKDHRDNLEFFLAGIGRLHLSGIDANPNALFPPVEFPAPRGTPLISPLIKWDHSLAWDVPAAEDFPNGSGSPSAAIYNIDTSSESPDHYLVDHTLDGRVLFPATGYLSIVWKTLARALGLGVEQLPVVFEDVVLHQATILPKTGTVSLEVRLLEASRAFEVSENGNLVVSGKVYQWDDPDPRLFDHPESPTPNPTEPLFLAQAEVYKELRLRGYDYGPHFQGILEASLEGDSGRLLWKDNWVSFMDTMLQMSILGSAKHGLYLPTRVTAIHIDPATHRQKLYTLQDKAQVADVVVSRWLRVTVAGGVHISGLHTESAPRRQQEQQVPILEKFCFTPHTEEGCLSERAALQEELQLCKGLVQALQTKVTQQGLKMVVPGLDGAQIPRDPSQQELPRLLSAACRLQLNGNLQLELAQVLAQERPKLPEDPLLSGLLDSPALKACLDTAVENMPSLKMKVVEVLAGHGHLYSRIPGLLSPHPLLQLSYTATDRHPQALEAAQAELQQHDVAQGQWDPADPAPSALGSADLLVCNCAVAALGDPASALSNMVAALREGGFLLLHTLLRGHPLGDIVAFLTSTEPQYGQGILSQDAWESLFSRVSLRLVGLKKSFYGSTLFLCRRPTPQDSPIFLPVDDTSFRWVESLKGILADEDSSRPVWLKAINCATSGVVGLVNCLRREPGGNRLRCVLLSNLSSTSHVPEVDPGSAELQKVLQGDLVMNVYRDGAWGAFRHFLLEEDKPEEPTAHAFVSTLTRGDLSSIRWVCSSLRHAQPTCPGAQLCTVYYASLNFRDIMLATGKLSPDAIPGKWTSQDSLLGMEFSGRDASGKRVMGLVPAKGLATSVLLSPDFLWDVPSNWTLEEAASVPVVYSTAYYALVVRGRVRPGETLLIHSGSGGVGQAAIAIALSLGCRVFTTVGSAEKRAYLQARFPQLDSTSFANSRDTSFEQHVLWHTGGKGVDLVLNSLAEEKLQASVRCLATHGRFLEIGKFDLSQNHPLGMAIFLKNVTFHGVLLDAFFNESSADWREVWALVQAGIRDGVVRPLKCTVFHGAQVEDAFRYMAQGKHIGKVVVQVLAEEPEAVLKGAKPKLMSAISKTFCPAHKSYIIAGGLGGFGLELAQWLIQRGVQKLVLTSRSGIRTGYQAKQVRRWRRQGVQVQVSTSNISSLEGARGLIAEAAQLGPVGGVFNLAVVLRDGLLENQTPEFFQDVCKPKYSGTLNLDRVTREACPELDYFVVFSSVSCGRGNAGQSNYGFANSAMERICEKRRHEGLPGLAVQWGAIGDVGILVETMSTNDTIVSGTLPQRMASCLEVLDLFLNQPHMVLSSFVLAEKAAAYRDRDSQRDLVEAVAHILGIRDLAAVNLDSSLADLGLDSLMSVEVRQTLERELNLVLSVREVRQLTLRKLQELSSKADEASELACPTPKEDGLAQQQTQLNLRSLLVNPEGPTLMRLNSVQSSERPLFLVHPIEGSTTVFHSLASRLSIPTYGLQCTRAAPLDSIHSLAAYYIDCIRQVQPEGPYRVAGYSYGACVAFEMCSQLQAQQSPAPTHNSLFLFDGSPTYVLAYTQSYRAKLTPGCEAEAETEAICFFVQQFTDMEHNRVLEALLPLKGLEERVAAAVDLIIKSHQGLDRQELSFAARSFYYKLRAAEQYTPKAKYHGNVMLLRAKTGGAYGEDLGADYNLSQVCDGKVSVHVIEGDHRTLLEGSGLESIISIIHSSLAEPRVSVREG

## CCC(C(=O)Nc1cccc(C(F)(F)F)c1)c1ccccc1 (stereo not drawn)
[1]
  EC50: 2.89 µM (active)
Cytochrome P450 1A2
  AC50: 2.51 µM (inconclusive)
Cytochrome P450 3A4
  AC50: 14.1 µM (inconclusive)

## COc1ccc(CNc2nc3c(c(=O)n(Cc4ccc(Br)cc4)c(=O)n3C)n2C)cc1
[2]
  IC50: 2.3 µM (active)

## CCOC(=O)c1[nH]c2ccccc2c1NC(=S)Nc1ccccc1
Prothrombin
  IC50: 3.09 µM (active)
[3]
  IC50: 108 µM (active)

## CC(=O)n1nc(-c2ccccc2)nc1NCc1ccc(F)cc1
Prothrombin
  IC50: 0.0165 µM (active)

## O=C(Nc1ccc(Cl)cc1)N1CCc2[nH]c3ccccc3c2C1
[4]
  IC50: 2.32 µM (not active)
[1]
  EC50: 0.802 µM (active)
Cytochrome P450 2C19
  AC50: 2 µM (inconclusive)
Cytochrome P450 2D6
  AC50: 22.4 µM (inconclusive)
Cytochrome P450 2C9
  AC50: 3.98 µM (inconclusive)

## C=CCOc1ccc(/C=N/N2C(=O)C(CC(=O)Nc3ccc(F)cc3F)S/C2=N\C)cc1 (stereo not drawn)
[5]
  EC50: 17.6 µM (active)
[2]
  IC50: > 50 µM (not active)
[6]
  EC50: 79.4 µM (active)

## CCOC(=O)CSc1nnc(NC(=O)c2cc([N+](=O)[O-])cc([N+](=O)[O-])c2)s1
Prothrombin
  IC50: > 50 µM (not active)

## O=C(Oc1oc(-c2ccco2)nc1/C=N/c1ccccc1)c1ccoc1
[7]
  EC50: > 195 µM (not active)
Prothrombin
  IC50: 1.37 µM (active)

## CCn1cc(C(=O)NCc2ccc3c(c2)OCO3)c(=O)c2cc(S(=O)(=O)N(C)C)ccc21
Prothrombin
  IC50: 0.537 µM (active)
Fatty acid synthase [8]
  IC50: 8.88 µM (active)
Fatty acid synthase [9]
  IC50: 12.1 µM (active)

## COc1ccc(-c2nnc(N3CCCCC3)c3ccccc23)cc1
[1]
  EC50: 11.3 µM (active)

## COCCn1c(SCc2ccccc2F)nc2ccccc2c1=O
[2]
  IC50: 9.21 µM (not active)
[10]
  EC50: 1.88 µM (active)

## CCOc1cccc(-c2c(C(=O)N/N=C/c3ccc(Br)cc3)nnn2-c2nonc2N)c1
Cells [11]
  EC50: > 350 µM (not active)
Cells [12]
  EC50: 160 µM (active)

## Cc1ccc(-c2noc(CSc3nnnn3C3CCCCC3)n2)cc1
[1]
  EC50: 1.95 µM (active)

## CCN(CC)S(=O)(=O)c1ccc(C(=O)NCc2ccc(C)cc2)cc1
Estrogen receptor beta
  IC50: > 50 µM (not active)

## O=C1c2ccccc2C(=O)N1CCc1csc(-c2ccc(F)cc2)n1
[2]
  IC50: > 50 µM (not active)

## Cc1ccc(N2CCN(C3=NC(=O)/C(=C\c4cccs4)S3)CC2)cc1
[2]
  IC50: 19.3 µM (not active)

## COc1cccc(/C=N\NC(=O)Cn2nnc3ccccc32)c1O
Cells [11]
  EC50: 172 µM (active)
Cells [12]
  EC50: > 350 µM (not active)

## O=C(CN1CCc2ccccc2C1)Nc1ccccc1C(F)(F)F
[3]
  IC50: 205 µM (active)
Cells [13]
  IC50: > 29.9 µM (inactive)
[14]
  EC50: 3.55 µM (active)
[15]
  IC50: 11.1 µM (inactive)
Cells [16]
  EC50: > 29.9 µM (inactive)

## O=C(CN1C(=O)C2CC=CCC2C1=O)Nc1nnc(SCc2ccc(Cl)cc2)s1 (stereo not drawn)
[1]
  EC50: 5.35 µM (active)
